Results published in patent US10456410B2, “Hydrogen sulfide (H2S) releasing donor compound for dermal wound regeneration” (University of South Carolina, priority 2017, dated 2019).

Tests used:
[1] = H2S release kinetics from PCL-JK-1 fibrous scaffold, modified Methylene Blue method; details: pH 6.0, PBS; PCL-JK-1 with 10% JK-1, JK-1 in solution as control (FIG. 4B)
[2] = H2S release from SA/JK-1 sponge at varied pH; details: pH 6.0

O=C([O-])CNP([O-])(=S)c1ccccc1.[Li+].[Li+] (centres unmarked) [JK-1]
time to H2S peak concentration [1]: ≤ 10 min
time to H2S peak concentration [2]: ≤ 55 min
